# Results from US20250230147A1, “LACTAMS AS CBL-B INHIBITORS” (Genentech, Inc., priority 2021, published 2025).
# What was measured:
# [1] = target: Cbl-b (Homo sapiens (Human), UniProt Q13191); test: Cbl-b LCK Ub TR-FRET assay (Cbl-b Lck HTRF); type: biochemical
# Procedure, shortened: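 TR-FRET (340 nm excitation, 615/665 nm emission) read after adding HA-ubiquitin–UBE2D2 thioester, anti-HA-D2 and streptavidin-Eu. Beforehand, compounds incubated 60 min with biotinylated Cbl-b, then 90 min with His-LCK and ATP (1 mM in 2× mix); IC50 from 10 concentrations, DMSO high and no-LCK low controls.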
# [2] = target: c-Cbl (Homo sapiens (Human), UniProt P22681); test: C-Cbl LCK Ub TR-FRET assay (c-cbl Lck HTRF); type: biochemical; details: for (fold-selectivity): C-cbl Lck HTRF IC50 relative to Cbl-b Lck HTRF IC50
# Procedure, shortened: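 Signal is read once the detection mix has stood 20 min at ambient temperature. Curves are anchored by DMSO as maximum and by omission of LCK as minimum.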
# Chain of c-Cbl (P22681 47-435): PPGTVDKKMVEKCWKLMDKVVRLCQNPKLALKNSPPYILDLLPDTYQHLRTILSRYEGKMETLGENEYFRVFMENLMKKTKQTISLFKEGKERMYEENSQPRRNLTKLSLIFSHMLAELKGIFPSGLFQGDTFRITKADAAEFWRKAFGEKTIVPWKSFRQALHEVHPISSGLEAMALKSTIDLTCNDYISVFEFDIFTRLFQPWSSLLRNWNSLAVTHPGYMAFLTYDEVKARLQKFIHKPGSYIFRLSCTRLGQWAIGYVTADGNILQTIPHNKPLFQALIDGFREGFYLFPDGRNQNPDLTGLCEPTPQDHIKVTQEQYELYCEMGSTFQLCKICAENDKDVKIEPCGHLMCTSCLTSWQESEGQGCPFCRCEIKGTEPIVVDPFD
# Chain of Cbl-b (Q13191 40-426): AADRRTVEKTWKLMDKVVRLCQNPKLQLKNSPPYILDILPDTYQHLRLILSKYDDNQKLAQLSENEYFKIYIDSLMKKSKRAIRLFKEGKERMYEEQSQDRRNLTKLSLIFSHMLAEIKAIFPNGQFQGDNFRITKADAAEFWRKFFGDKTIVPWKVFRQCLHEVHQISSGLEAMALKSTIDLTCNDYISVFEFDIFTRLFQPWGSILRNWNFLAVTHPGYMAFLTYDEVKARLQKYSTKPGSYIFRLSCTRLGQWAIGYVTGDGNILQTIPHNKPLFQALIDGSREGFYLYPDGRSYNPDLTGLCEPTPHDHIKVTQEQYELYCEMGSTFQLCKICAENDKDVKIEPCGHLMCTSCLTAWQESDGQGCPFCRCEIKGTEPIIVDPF
SMILES,IC50 [1] [nM],IC50 [2] [nM],(fold-selectivity) [2]
"Cn1cnnc1[C@@H](F)C1(c2cccc(N3Cc4c(cc(CN5CC(O)(C6CC6)C5)cc4C(F)(F)F)C3=O)c2)COC1 [Compound 174, (S)-6-((3-cyclopropyl-3-hydroxyazetidin-1-yl)methyl)-2-(3-(3-(fluoro(4-methyl-4H-1,2,4-triazol-3-yl)methyl)oxetan-3-yl)phenyl)-4-(trifluoromethyl)isoindolin-1-one]",190,440,2.3x
"CCSc1cc(C2(Cc3nncn3C)CCC2)cc(N2Cc3c(cc(CNC4(C)CCC4)cc3C(F)(F)F)C2=O)n1 [Compound 286, 2-(6-(ethylthio)-4-(1-((4-methyl-4H-1,2,4-triazol-3-yl)methyl)cyclobutyl)pyridin-2-yl)-6-(((1-methylcyclobutyl)amino)methyl)-4-(trifluoromethyl)isoindolin-1-one]",6.8,4.9,(0.73x)
"Cn1cnnc1[C@@H](F)C1(c2cccc(N3Cc4c(cc(CN5CC6(C5)CS(=O)(=O)C6)cc4C(F)(F)F)C3=O)c2)COC1 [Compound 182, (S)-6-((2,2-dioxido-2-thia-6-azaspiro[3.3]heptan-6-yl)methyl)-2-(3-(3-(fluoro(4-methyl-4H-1,2,4-triazol-3-yl)methyl)oxetan-3-yl)phenyl)-4-(trifluoromethyl)isoindolin-1-one]",170,430,2.6x
"Cn1cnnc1CC1(c2cccc(N3Cc4c(cc(CNC5(C)COC5)cc4C(F)(F)F)C3=O)c2)CC(F)(F)C1 [Compound 332, 2-(3-(3,3-difluoro-1-((4-methyl-4H-1,2,4-triazol-3-yl)methyl)cyclobutyl)phenyl)-6-(((3-methyloxetan-3-yl)amino)methyl)-4-(trifluoromethyl)isoindolin-1-one]",28,34,(1.2x)
"Cn1cnnc1[C@H](F)C1(c2cccc(N3Cc4c(cc(CNC5(C)CC5)cc4C(F)(F)F)C3=O)c2)COC1 [Compound 229, (R)-2-(3-(3-(fluoro(4-methyl-4H-1,2,4-triazol-3-yl)methyl)oxetan-3-yl)phenyl)-6-(((1-methylcyclopropyl)amino)methyl)-4-(trifluoromethyl)isoindolin-1-one]",12,10,(0.83x)
"CCCc1cc(C2(Cc3nncn3C)CCC2)cc(N2Cc3c(cc(CNC4(C)CCC4)cc3C(F)(F)F)C2=O)n1 [Compound 343, 2-(4-(1-((4-methyl-4H-1,2,4-triazol-3-yl)methyl)cyclobutyl)-6-propylpyridin-2-yl)-6-(((1-methylcyclobutyl)amino)methyl)-4-(trifluoromethyl)isoindolin-1-one]",13,9.5,(0.74x)
"CC(C)[C@@H]1CNCCN1Cc1cc2c(c(C(F)(F)F)c1)CN(c1cccc(C3([C@@H](F)c4nncn4C)COC3)c1)C2=O [Compound 94, 2-(3-(3((R)-fluoro(4-methyl-4H-1,2,4-triazol-3-yl)methyl)oxetan-3-yl)phenyl)-6-(((R)-2-isopropylpiperazin-1-yl)methyl)-4-(trifluoromethyl)isoindolin-1-one]",180,200,1.1x
"C[C@H]1CN(C)CCN1Cc1cc2c(c(C(F)(F)F)c1)CN(c1cccc(C3(Cc4nncn4C)CC(F)(F)C3)c1)C2=O [Compound 214, (S)-2-(3-(3,3-difluoro-1-((4-methyl-4H-1,2,4-triazol-3-yl)methyl)cyclobutyl)phenyl)-6-((2,4-dimethylpiperazin-1-yl)methyl)-4-(trifluoromethyl)isoindolin-1-one]",42,41,0.96x
"CC(C)[C@@H]1CN(Cc2cc3c(c(C(F)(F)F)c2)CN(c2cccc(C4([C@@H](F)c5nncn5C)COC4)c2)C3=O)CCN1C [Compound 406, 2-(3-(3-((R)-fluoro(4-methyl-4H-1,2,4-triazol-3-yl)methyl)oxetan-3-yl)phenyl)-6-(((R)-3-isopropyl-4-methylpiperazin-1-yl)methyl)-4-(trifluoromethyl)isoindolin-1-one]",75,84,(1.1x)
"Cn1cnnc1CC1(c2cc(NC3CCC(F)(F)C3)nc(N3Cc4c(cccc4C(F)(F)F)C3=O)c2)COC1 (stereo not drawn) [Compound 483, 2-(6-((3,3-difluorocyclopentyl)amino)-4-(3-((4-methyl-4H-1,2,4-triazol-3-yl)methyl)oxetan-3-yl)pyridin-2-yl)-4-(trifluoromethyl)isoindolin-1-one]",1800,20000,(12x)
"CNS(=O)(=O)CCNc1cc(C2(Cc3nncn3C)CCC2)cc(N2Cc3c(cc(CNC4(C)CCC4)cc3C(F)(F)F)C2=O)n1 [Compound 312, N-methyl-2-((4-(1-((4-methyl-4H-1,2,4-triazol-3-yl)methyl)cyclobutyl)-6-(6-(((1-methylcyclobutyl)amino)methyl)-1-oxo-4-(trifluoromethyl)isoindolin-2-yl)pyridin-2-yl)amino)ethanesulfonamide]",70,110,(1.5x)
"CC(C)[C@H]1CN(C)CCN1Cc1cc2c(c(C(F)(F)F)c1)CN(c1cccc(C3(Cc4nncn4C)COC3)c1)C2=O [Compound 407, (S)-6-((2-isopropyl-4-methylpiperazin-1-yl)methyl)-2-(3-(3-((4-methyl-4H-1,2,4-triazol-3-yl)methyl)oxetan-3-yl)phenyl)-4-(trifluoromethyl)isoindolin-1-one]",7.1,5.7,(0.80x)
"Cn1cnnc1[C@H](F)C1(c2cccc(N3Cc4c(cc(CN5CC(CCO)C5)cc4C(F)(F)F)C3=O)c2)COC1 [Compound 177, (R)-2-(3-(3-(fluoro(4-methyl-4H-1,2,4-triazol-3-yl)methyl)oxetan-3-yl)phenyl)-6-((3-(2-hydroxyethyl)azetidin-1-yl)methyl)-4-(trifluoromethyl)isoindolin-1-one]",41,91,2.2x
"C[C@H](N)c1cc2c(c(C(F)(F)F)c1)CN(c1cccc(C3(Cc4nncn4C)CC(F)(F)C3)c1)C2=O [Compound 384, (S)-6-(1-aminoethyl)-2-(3-(3,3-difluoro-1-((4-methyl-4H-1,2,4-triazol-3-yl)methyl)cyclobutyl)phenyl)-4-(trifluoromethyl)isoindolin-1-one]",22,25,(1.1x)
"Cn1cnnc1[C@@H](F)C1(c2cccc(N3Cc4c(cc(CN5CC(C)(CO)C5)cc4C(F)(F)F)C3=O)c2)CC1 [Compound 125, (S)-2-(3-(1-(fluoro(4-methyl-4H-1,2,4-triazol-3-yl)methyl)cyclopropyl)phenyl)-6((3-(hydroxymethyl)-3-methylazetidin-1-yl)methyl)-4-(trifluoromethyl)isoindolin-1-one]",140,240,1.7x
"C[C@H]1CN(Cc2cc3c(c(C(F)(F)F)c2)CN(c2cccc(C4(Cc5nncn5C)CC(F)(F)C4)c2)C3=O)CCN1 [Compound 425, (S)-2-(3-(3,3-difluoro-1-((4-methyl-4H-1,2,4-triazol-3-yl)methyl)cyclobutyl)phenyl)-6-((3-methylpiperazin-1-yl)methyl)-4-(trifluoromethyl)isoindolin-1-one]",32,22,(0.68x)
"CO[C@H]1CCCN(Cc2cc3c(c(C(F)(F)F)c2)CN(c2cccc(C4(Cc5nncn5C)CC(F)(F)C4)c2)C3=O)C1 [Compound 443, (S)-2-(3-(3,3-difluoro-1-((4-methyl-4H-1,2,4-triazol-3-yl)methyl)cyclobutyl)phenyl)-6-((3-methoxypiperidin-1-yl)methyl)-4-(trifluoromethyl)isoindolin-1-one]",59,180,(2.8x)
"Cn1cnnc1CC1(c2cccc(N3Cc4c(cc(CNC56CC(C5)C6)cc4C(F)(F)F)C3=O)c2)CC(F)(F)C1 [Compound 356, 6-((bicyclo[1.1.1]pentan-1-ylamino)methyl)-2-(3-(3,3-difluoro-1-((4-methyl-4H-1,2,4-triazol-3-yl)methyl)cyclobutyl)phenyl)-4-(trifluoromethyl)isoindolin-1-one]",12,10,(0.81x)
"C[C@@H]1CN(Cc2cc3c(c(C(F)(F)F)c2)CN(c2cccc(C4(Cc5nncn5C)CC(F)(F)C4)c2)C3=O)CCN1C [Compound 220, (R)-2-(3-(3,3-difluoro-1-((4-methyl-4H-1,2,4-triazol-3-yl)methyl)cyclobutyl)phenyl)-6-((3,4-dimethylpiperazin-1-yl)methyl)-4-(trifluoromethyl)isoindolin-1-one]",34,35,1.0x
"Cn1cnnc1[C@@H](F)C1(c2cccc(N3Cc4c(cc(CN5CCOCC5)cc4C(F)(F)F)C3=O)c2)COC1 [Compound 89, (S)-2-(3-(3-(fluoro(4-methyl-4H-1,2,4-triazol-3-yl)methyl)oxetan-3-yl)phenyl)-6-(morpholinomethyl)-4-(trifluoromethyl)isoindolin-1-one]",310,720,2.3x
"CCn1cnnc1[C@H](F)C1(c2cccc(N3Cc4c(cccc4C(F)(F)F)C3=O)c2)COC1 [Compound 272, (R)-2-(3-(3-((4-ethyl-4H-1,2,4-triazol-3-yl)fluoromethyl)oxetan-3-yl)phenyl)-4-(trifluoromethyl)isoindolin-1-one]",8200,11000,(1.3x)
